Assay [1] is described as follows: Inhibition of mCherry-fused bacterial LpxH assessed as inhibition of UDP-DAG conversion by luminescence based assay. On the set-up: species or system Bacteria.
A short description of assay [2]: Inhibition of Klebsiella pneumoniae LpxH.
Assay [3] in a line: Inhibition of Escherichia coli LpxH.
Assay [4] concerns Escherichia coli. The assay can be described thus: Antibacterial activity against Escherichia coli ATCC 25922 assessed as bacterial growth inhibition. It counts as functional, organism-based.
The test system of a further assay is Klebsiella pneumoniae. The assay can be described thus: Antibacterial activity against Klebsiella pneumoniae assessed as bacterial growth inhibition. It counts as functional.
Assay [5] deals with Escherichia coli. The assay can be described thus: Inhibition of Escherichia coli LpxH at 1 uM relative to control.
For assay [6], the system named is Escherichia coli. The assay can be described thus: Antibacterial activity against Escherichia coli Delta tolC assessed as bacterial growth inhibition. In kind it is functional, organism-based.
Assay [7] is described as follows: Inhibition of Escherichia coli Delta tolC LpxD.
The subject of assay [8] is Escherichia coli. The assay can be described thus: Antibacterial activity against Escherichia coli assessed as bacterial growth inhibition. In kind it is functional.
Assay [9] has as its system Escherichia coli. The assay can be described thus: Antibacterial activity against Escherichia coli Delta tolC expressing Plac/LpxD assessed as bacterial growth inhibition. It counts as functional.
Assay [10] deals with Escherichia coli. The assay can be described thus: Antibacterial activity against Escherichia coli TolC minus assessed as bacterial growth inhibition. In kind it is functional, organism-based.
Assay [11] can be described thus: Inhibition of bacterial LpxD. On the set-up: species or system Bacteria.

Converted amounts (≈) assume the structure as drawn. Residues, ends and D or L forms follow the SMILES beside them.

Broadly, the IC50 is the midpoint of a concentration-inhibition curve. Usually MIC stands for the smallest concentration in the dilution series that meets the test's criterion for growth inhibition. One may read the inhibition as the share of the control response that was lost under treatment. Low readings indicate a response near the control, high ones a response far below the control. On to `O=CN1CCc2cc(S(=O)(=O)N3CCN(c4cccc(C(F)(F)F)c4)CC3)ccc21`, for which the half-inhibitory concentration (IC50) in assay [1] came out at 1.2 µM; in assay [2] it was 0.36 µM; in [3], 0.14 µM. Also, the MIC with Escherichia coli [4] and in the assay with Klebsiella pneumoniae was over 64 mg/L each time. This compound came in with an inhibition with Escherichia coli [5] of 45%.

Regarding `CC1(C)CC(=O)C2=C(C1)Nc1nn(-c3ccccc3)c(O)c1C2c1ccccc1Cl` (stereo not drawn), the MIC in the assay on Escherichia coli [6] is 3.13 mg/L (≈ 7.45 µM). The compound further returned an IC50 in assay [7] of 3.2 µM.

Consider `CC1(C)CC(=O)C2C(=Nc3nn(-c4ccccc4)c(O)c3C2c2ccccc2Cl)C1` (stereo not drawn), for which the MIC turned out to be 128 mg/L (≈ 305 µM) in the assay on Escherichia coli [8], 8 mg/L (≈ 19.1 µM) in the assay with Escherichia coli [9] and 1 mg/L (≈ 2.38 µM) in the assay with Escherichia coli [6].

Consider `CSCC[C@H](NC(=O)[C@H](Cc1ccccc1)NC(=O)[C@H](CC(N)=O)NC(=O)[C@H](CC(N)=O)NC(=O)[C@H](CCC(=O)O)NC(=O)[C@@H](N)CO)C(=O)N[C@@H](CC(C)C)C(=O)N1CCC[C@H]1C(=O)N[C@@H](CC(C)C)C(=O)N[C@@H](CC(C)C)C(=O)N1CCC[C@H]1C(=O)N[C@@H](CC(C)C)C(N)=O` (H-SENNFMLPLLPL-NH2), for which the IC50 was found to be 3.13 µM in the assay on Escherichia coli [10] and 3.2 µM in assay [11].
